Values of other authors in patent US20130281512A1, “AGENTS FOR TREATING DISORDERS INVOLVING MODULATION OF RYANODINE RECEPTORS” (LES LABORATOIRES SERVIER, priority 2012, published 2013).

Assays:
[1] = tested on: RyR2; details: WT and RyR2-S2808D+/+ mice; cited from earlier work
[2] = target: T1, RyR1 (Mus musculus, UniProt E9PZQ0); details: extreme exercise, mice; cited from earlier work
T1 construct: RyR1 from aged (24 months) mice is oxidized, cysteine-nitrosylated, and depleted of calstabin1; host or cells: mice (in vivo)

[3] = tested on: RyR1; details: mdx mouse model; cited from earlier work
[4] = tested on: RyR; details: cited from earlier work
[5] = target: T1, RyR1; details: aged mice; cited from earlier work

T1 sequence (E9PZQ0 whole entry): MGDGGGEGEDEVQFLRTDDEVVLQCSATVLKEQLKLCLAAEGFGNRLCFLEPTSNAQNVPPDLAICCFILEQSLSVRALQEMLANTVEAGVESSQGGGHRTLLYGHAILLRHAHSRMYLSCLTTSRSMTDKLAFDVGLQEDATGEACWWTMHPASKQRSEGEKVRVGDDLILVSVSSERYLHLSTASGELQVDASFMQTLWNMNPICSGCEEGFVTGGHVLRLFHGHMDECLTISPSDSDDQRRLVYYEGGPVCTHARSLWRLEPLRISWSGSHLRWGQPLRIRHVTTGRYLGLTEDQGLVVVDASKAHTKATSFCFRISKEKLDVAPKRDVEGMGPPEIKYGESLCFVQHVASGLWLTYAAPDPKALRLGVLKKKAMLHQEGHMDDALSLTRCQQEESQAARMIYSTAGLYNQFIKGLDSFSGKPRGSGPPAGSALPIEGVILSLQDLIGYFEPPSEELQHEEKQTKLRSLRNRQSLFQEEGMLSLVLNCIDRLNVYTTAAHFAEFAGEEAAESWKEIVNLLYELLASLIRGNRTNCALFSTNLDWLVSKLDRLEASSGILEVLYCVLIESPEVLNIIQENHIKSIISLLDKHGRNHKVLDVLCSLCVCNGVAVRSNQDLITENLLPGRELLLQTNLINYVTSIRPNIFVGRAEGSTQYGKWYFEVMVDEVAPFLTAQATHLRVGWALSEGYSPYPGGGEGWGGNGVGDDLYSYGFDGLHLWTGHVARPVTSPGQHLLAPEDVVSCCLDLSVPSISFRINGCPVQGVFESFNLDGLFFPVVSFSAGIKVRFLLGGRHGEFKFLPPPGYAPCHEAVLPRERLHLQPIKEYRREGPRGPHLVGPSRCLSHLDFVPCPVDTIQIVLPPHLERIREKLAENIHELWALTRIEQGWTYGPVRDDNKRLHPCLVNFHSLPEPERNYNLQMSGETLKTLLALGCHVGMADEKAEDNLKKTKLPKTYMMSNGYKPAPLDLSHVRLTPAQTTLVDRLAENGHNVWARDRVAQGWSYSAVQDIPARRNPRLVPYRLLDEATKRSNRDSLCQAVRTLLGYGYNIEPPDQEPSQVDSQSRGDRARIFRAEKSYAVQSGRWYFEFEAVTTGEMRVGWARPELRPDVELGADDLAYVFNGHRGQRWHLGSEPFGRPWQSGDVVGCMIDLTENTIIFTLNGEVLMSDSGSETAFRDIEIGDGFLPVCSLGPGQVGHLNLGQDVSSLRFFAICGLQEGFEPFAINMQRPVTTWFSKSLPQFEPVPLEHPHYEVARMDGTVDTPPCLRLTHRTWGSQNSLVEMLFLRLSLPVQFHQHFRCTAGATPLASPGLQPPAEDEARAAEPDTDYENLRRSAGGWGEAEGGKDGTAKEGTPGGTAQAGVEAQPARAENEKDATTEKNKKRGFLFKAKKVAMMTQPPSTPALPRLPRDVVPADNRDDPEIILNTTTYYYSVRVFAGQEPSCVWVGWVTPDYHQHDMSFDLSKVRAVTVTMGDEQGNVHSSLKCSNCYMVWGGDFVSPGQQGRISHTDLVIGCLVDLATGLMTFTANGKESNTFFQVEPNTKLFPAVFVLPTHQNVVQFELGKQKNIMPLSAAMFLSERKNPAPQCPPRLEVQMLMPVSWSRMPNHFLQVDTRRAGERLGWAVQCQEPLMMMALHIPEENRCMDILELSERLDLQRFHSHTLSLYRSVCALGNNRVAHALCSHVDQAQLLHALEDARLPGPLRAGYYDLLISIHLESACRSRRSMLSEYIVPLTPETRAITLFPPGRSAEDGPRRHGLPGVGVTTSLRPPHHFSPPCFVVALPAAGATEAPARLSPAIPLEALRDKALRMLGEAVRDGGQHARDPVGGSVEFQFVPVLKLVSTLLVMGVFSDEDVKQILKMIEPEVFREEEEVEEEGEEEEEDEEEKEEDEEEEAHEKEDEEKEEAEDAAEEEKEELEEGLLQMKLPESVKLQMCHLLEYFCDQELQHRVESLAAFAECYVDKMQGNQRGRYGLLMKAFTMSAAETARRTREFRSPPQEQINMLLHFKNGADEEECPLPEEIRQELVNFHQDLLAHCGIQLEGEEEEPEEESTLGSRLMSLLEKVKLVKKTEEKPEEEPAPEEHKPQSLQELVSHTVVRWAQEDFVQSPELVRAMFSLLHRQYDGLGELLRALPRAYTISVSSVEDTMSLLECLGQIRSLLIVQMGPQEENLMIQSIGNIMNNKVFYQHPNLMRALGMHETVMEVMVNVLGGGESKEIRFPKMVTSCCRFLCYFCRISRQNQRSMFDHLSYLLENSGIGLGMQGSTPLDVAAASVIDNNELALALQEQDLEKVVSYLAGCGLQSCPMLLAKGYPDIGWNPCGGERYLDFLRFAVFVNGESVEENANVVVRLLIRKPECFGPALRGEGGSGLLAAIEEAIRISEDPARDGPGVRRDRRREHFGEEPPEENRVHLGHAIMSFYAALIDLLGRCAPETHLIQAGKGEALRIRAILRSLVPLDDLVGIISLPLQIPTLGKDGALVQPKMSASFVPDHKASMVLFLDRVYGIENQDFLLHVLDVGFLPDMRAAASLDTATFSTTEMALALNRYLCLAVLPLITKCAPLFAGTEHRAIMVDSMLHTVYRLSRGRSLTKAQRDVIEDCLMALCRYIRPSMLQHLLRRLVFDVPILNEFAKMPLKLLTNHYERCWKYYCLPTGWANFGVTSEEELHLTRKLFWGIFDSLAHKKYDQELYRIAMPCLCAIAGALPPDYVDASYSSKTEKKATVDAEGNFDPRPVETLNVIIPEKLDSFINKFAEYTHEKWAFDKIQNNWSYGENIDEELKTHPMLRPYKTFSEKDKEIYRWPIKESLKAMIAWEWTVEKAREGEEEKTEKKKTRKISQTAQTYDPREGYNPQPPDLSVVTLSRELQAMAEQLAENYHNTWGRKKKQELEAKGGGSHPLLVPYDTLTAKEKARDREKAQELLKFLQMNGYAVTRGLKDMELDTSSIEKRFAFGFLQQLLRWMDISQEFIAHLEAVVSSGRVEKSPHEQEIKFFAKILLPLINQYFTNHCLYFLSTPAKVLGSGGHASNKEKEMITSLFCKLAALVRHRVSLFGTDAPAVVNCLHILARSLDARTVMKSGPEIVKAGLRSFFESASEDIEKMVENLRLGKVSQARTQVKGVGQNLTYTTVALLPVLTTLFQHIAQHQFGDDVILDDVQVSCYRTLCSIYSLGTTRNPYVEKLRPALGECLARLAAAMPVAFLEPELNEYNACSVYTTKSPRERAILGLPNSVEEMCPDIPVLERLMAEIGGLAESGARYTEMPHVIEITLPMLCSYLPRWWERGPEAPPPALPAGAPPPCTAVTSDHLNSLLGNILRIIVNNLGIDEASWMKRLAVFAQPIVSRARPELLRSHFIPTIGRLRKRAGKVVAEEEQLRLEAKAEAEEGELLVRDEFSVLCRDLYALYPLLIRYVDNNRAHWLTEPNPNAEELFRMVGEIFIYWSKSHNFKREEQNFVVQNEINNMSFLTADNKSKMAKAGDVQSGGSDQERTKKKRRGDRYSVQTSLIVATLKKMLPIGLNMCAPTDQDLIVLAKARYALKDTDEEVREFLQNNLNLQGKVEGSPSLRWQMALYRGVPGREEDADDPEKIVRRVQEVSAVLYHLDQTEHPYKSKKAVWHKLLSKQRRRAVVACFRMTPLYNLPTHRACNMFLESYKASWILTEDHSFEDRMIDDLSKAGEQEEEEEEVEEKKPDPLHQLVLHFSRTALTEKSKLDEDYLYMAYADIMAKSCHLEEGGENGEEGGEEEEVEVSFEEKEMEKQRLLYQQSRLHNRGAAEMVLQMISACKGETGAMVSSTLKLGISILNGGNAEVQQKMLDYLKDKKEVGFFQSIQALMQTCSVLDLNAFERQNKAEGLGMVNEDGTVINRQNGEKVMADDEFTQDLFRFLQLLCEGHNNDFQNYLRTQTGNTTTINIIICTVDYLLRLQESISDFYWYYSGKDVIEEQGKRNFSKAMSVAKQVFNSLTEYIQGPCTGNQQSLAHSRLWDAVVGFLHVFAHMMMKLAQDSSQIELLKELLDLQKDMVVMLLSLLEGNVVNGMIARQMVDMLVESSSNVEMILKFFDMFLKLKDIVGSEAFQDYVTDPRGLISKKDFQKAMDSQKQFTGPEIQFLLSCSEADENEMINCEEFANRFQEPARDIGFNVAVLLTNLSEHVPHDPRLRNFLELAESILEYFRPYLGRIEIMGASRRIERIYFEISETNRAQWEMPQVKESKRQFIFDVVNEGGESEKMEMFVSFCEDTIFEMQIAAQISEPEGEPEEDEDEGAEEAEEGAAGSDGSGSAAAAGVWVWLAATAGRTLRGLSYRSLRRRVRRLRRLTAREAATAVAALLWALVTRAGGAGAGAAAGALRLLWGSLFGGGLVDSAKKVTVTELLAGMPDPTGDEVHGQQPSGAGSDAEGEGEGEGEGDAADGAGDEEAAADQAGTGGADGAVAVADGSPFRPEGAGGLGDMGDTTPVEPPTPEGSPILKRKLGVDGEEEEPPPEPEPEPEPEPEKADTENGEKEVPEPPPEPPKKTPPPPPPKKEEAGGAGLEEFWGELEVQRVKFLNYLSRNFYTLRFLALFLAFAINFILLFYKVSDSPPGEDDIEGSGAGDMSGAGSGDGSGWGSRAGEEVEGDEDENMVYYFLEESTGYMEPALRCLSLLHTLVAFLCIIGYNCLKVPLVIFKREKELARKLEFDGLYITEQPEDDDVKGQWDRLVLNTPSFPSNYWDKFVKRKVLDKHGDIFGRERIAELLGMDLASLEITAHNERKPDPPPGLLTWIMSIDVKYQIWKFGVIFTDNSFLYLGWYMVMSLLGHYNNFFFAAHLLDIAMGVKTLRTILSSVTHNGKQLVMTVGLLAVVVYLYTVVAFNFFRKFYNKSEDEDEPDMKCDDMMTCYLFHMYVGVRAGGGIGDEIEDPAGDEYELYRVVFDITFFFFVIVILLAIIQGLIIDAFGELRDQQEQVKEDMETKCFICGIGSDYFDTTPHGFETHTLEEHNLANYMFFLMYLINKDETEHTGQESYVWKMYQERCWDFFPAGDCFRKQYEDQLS
T1 sequence (P26883 2-108 partner limits assumed): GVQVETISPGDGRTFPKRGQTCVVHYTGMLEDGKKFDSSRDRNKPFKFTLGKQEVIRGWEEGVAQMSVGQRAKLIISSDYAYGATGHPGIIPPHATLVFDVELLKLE

COc1ccc2c(c1)CN(C)CCS2 [Compound 5107]
HF progression [1]: reduced | RyR2-mediated diastolic SR Ca2+ leak [1]: inhibited | Ca2+ dependent neutral protease calpain activity and plasma creatinine kinase levels [2]: reduced | depletion of calstabin1 from the RyR1 complex [2]: prevented | indices of muscle function [3]: improves | SR Ca2+ leak ([4]; after myocardial ischemia-reperfusion): inhibited | ventricular arrhythmias, infarct size, and left ventricular remodeling ([4]; at 15 days after reperfusion): reduced | binding of calstabin1 to RyR1 [5]: stabilized | intracellular calcium leak [5]: reduced | reactive oxygen species (ROS) [5]: decreased | tetanic Ca2+ release, muscle-specific force, and exercise capacity [5]: enhanced
